Where two headings read alike, the source gives them in different places.
Key:
MDA-MB231 = assay: MTT assay, MDA-MB231 breast cancer cells; assay type: cell-based; details: Homo sapiens, MDA-MB-231; for viability at 10 µM: 72 h after the treatment, mean of three independent experiments, read-out: Percentage of cell viability MDA-MB231
How it was run: (§1)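 Cells seeded 24 h at 37 °C, 5% CO2, then treated 72 h with a concentration range; single-point screen at 10 μM gave % viability. MTT (0.5 mg/mL, 4 h), DMSO-solubilised, A570; GI50 from sigmoidal curves, mean of three experiments.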

MCF-10A = assay: MTT assay, MCF-10A normal breast cells; assay type: cell-based; details: Homo sapiens, 72 h, read-out: GI50 (μM) ± SEM MCF-10A
Protocol: All the compounds, selected for determination of GI50 values against MDA-MB231 cells, were also used for the experiments with MCF-10A normal breast cells.
The cytotoxic activity of 6,N^2-diaryl-1,3,5-triazine-2,4-diamines (1–126) was evaluated against three breast carcinoma cell lines (MDA-MB231, SKBR-3, and MCF-7) and normal breast cell line (MCF-10A) by MTT assay.[22] All cells were obtained from the American Type Culture Collection and were grown in 10% fetal bovine serum and 1% pen-strep antibiotic supplemented media (DMEM for MDA-MB231 and SKBR-3, RPMI for MCF-7, and MEGM for MCF-10A). For MTT assay, 20 000 to 75 000 cells per mL (based on the doubling time for each cell line) were seeded in 96 well plates and incubated for 24 h at 37 °C in 5% CO2 incubator. Then, compounds at different concentrations were added followed by the incubation at 37 °C for 72 h. After that, MTT solution (0.5 mg mL^−1) was added and the plates were incubated for another 4 h. The supernatant was then discarded and 100 μL of DMSO was added to each well. The plates were then read by Tecan NanoQuant (model: infinite m200 pro) plate reader and absorbance was measured at 570 nm. GI50 values were calculated using sigmoidal concentration–response curves (see ESI ^†) generated using the GraphPad Prism 7 program. Three independent experiments were carried out and the data were represented as mean of the three experiments.

SKBR-3 = assay: MTT assay, SKBR-3 breast cancer cells; assay type: cell-based; details: for viability at 10 µM / GI50: Homo sapiens, SK-BR-3, MTT; for viability at 10 µM: 72 h after the treatment, mean of three independent experiments, read-out: Percentage of cell viability SKBR-3; for GI50: 72 h, mean of three independent experiments ± SEM
How it was run: as §1

MCF-7 = assay: MTT assay, MCF-7 breast cancer cells; assay type: cell-based; details: Homo sapiens; for viability at 10 µM: MCF7, 10 μM, 72 h after the treatment, mean of three independent experiments, read-out: Percentage of cell viability MCF-7; for GI50: MCF7, 72 h, mean of three independent experiments ± SEM
How it was run: as §1

[1] = 72 h, MTT, mean of three independent experiments ± SEM, read-out: GI50 (μM) ± SEM MDA-MB231
[2] = −log[GI50], MDA-MB231, read-out: Experimental pGI50 (converted)

SMILES	melting point [°C]	viability at 10 µM (MDA-MB231; MTT) [%]	GI50 (MDA-MB231; [1]) [µM]	GI50 (MDA-MB231; [2]) [µM]	GI50 (MCF-10A) [µM]	viability at 10 µM (SKBR-3) [%]	GI50 (SKBR-3) [µM]	viability at 10 µM (MCF-7) [%]	GI50 (MCF-7) [µM]	activity against SKBR-3 cells (in words) (SKBR-3; SAR discussion, compared with MDA-MB231)
Nc1nc(Nc2ccccc2Cl)nc(-c2ccccc2)n1 (hydrate or solvate) [Compound 4, N ^2-(2-Chlorophenyl)-6-phenyl-1,3,5-triazine-2,4-diamine]	82 to 84									
Cc1cccc(-c2nc(N)nc(Nc3ccc(F)cc3)n2)c1 (hydrate or solvate) [Compound 53, N ^2-(4-Fluorophenyl)-6-(3-methylphenyl)-1,3,5-triazine-2,4-diamine]	138 to 139									
Cc1ccc(Nc2nc(N)nc(-c3cccc(C)c3)n2)cc1 [Compound 56]		12	0.17 ± 0.02	0.17	> 25	62	1.26 ± 0.18	67	> 20	
Cc1cccc(-c2nc(N)nc(Nc3ccc(OC(F)(F)F)cc3)n2)c1 [Compound 58]		50	15.2 ± 1.01	15.1	> 25	100	> 20	73	> 20	
Cc1ccc(-c2nc(N)nc(Nc3ccccc3F)n2)cc1 [Compound 61]		50	12.2 ± 1.15	12.3	> 25	79	> 20	73	> 20	
Cc1ccc(-c2nc(N)nc(Nc3ccc(F)cc3)n2)cc1 [Compound 62]		48	10.7 ± 0.73	10.7	> 25	78	> 20	100	20.2 ± 1.95	
COc1ccc(-c2nc(N)nc(Nc3ccccc3F)n2)cc1 [Compound 70]		9	0.32 ± 0.04	0.324	> 25	46	> 20	63	> 20	
COc1ccc(-c2nc(N)nc(Nc3ccccc3Cl)n2)cc1 [Compound 73]		10	0.23 ± 0.03	0.229	> 25	47	1.1 ± 0.01	84	> 20	equipotent
COc1ccc(-c2nc(N)nc(Nc3cccc(Cl)c3)n2)cc1 [Compound 74]		22	1.33 ± 0.17	1.32	> 25	45	0.18 ± 0.04	86	18.3 ± 1.11	
COc1ccc(-c2nc(N)nc(Nc3cccc(C)c3)n2)cc1 [Compound 77]		22	0.95 ± 0.04	0.955	> 25	40	3.38 ± 0.36	79	> 20	
COc1ccc(-c2nc(N)nc(Nc3ccccc3OC)n2)cc1 [Compound 78]		50	13.2 ± 0.93	13.2	> 25	66	2.15 ± 0.12	57	> 20	
COc1ccc(-c2nc(N)nc(Nc3cccnc3)n2)cc1 [Compound 81]		46	14 ± 1.33		> 25	77	15.6 ± 1.06	91	> 20	
COc1ccccc1Nc1nc(N)nc(-c2ccc(OC(F)(F)F)cc2)n1 [Compound 95]		46	12.8 ± 0.76	12.9	> 25	81	> 20	88	> 20	
Nc1nc(Nc2cccnc2)nc(-c2ccc(OC(F)(F)F)cc2)n1 [Compound 99]		33	11.5 ± 1.51	11.5	> 25	81	> 20	85	> 20	
CN(C)c1ccc(-c2nc(N)nc(Nc3ccccc3)n2)cc1 [Compound 100]		21	0.36 ± 0.07	0.363	> 25	61	4.19 ± 0.37	80	> 20	
CN(C)c1ccc(-c2nc(N)nc(Nc3ccccc3F)n2)cc1 [Compound 101]		28	0.06 ± 0.001	0.0603	> 25	51	0.29 ± 0.04	88	> 20	
CN(C)c1ccc(-c2nc(N)nc(Nc3ccc(F)cc3)n2)cc1 [Compound 102]		32	7.2 ± 0.94	7.24	> 25	88	> 20	90	> 20	
COc1ccccc1Nc1nc(N)nc(-c2ccc(N(C)C)cc2)n1 [Compound 103]		28	4.17 ± 0.33	4.17	> 25	48	3.63 ± 0.23	88	> 20	
Nc1nc(Nc2ccccc2)nc(-c2ccc(OCc3ccccc3)cc2)n1 [Compound 110]		51	13.4 ± 1.18	13.5	> 25	75	> 20	100	> 20	
Nc1nc(Nc2ccc(Br)cc2)nc(-c2cccs2)n1 [Compound 120]		46	11.7 ± 1.39	11.7	> 25	87	> 20	88	> 20	
Cc1ccc(Nc2nc(N)nc(-c3cccs3)n2)cc1 [Compound 121]		49	13.9 ± 1.74	13.8	> 25	95	> 20	97	> 20	

Reference: paper PMC9050923, “6,N^2-Diaryl-1,3,5-triazine-2,4-diamines: synthesis, antiproliferative activity and 3D-QSAR modeling” (RSC Advances, 2020)
